Assay results: patent publication EP0115820A2, “Cephalosporin derivatives and process for their preparation” (Kaken Pharmaceutical Co., Ltd., priority 1983, dated 1984)

What was measured:
Assay in all cases: Minimum inhibitory concentration (MIC)
Assay type in all cases: cell-based
[1] = test system: Pseudomonas aeruginosa K-13; details: K13; Pseudomonas aeruginosa K-13; bacterial suspension 10^6 cells/ml; sodium salts tested; read-out: Minimum inhibitory concentration
Description: (§1) The cephalosporin derivatives of the present invention are novel substances, and the antimicrobial activities of their sodium salts are shown by the minimum inhibitory concentrations (MIC, µg/ml) in Table 1, as compared with a typical known cephalosporin compound.

[2] = test system: Pseudomonas aeruginosa E-2; details: E2; Pseudomonas aeruginosa E-2; bacterial suspension 10^6 cells/ml; sodium salts tested; read-out: Minimum inhibitory concentration
Description: as §1

[3] = test system: Staphylococcus aureus 209 P JC-1; details: 209PJC1; Staphylococcus aureus 209 P JC-1; bacterial suspension 10^6 cells/ml; sodium salts tested; read-out: Minimum inhibitory concentration
Description: as §1

[4] = test system: Escherichia coli NIHJ JC-2; details: NIHJJC2; Escherichia coli NIHJ JC-2; bacterial suspension 10^6 cells/ml; sodium salts tested; read-out: Minimum inhibitory concentration
Description: as §1

[5] = test system: Pseudomonas aeruginosa Y-1; details: Y1; Pseudomonas aeruginosa Y-1; bacterial suspension 10^6 cells/ml; sodium salts tested; read-out: Minimum inhibitory concentration
Description: as §1

Proteus vulgaris GN-76 = details: GN76; Proteus vulgaris GN-76; bacterial suspension 10^6 cells/ml; sodium salts tested; read-out: Minimum inhibitory concentration
Description: as §1

[6] = test system: Serratia marcescens No. 16-2; details: NO.162; Serratia marcescens No. 16-2; bacterial suspension 10^6 cells/ml; sodium salts tested; read-out: Minimum inhibitory concentration
Description: as §1

[7] = test system: Klebsiella pneumoniae No. 42; details: Klebsiella pneumoniae No. 42; bacterial suspension 10^6 cells/ml; sodium salts tested; read-out: Minimum inhibitory concentration
Description: as §1

Compound | MIC [1] [µg/mL] | MIC [2] [µg/mL] | MIC [3] [µg/mL] | MIC [4] [µg/mL] | MIC [5] [µg/mL] | MIC (Proteus vulgaris GN-76) [µg/mL] | MIC [6] [µg/mL] | MIC [7] [µg/mL]
CC(=O)OCC1=C(C(=O)O)N2C(=O)[C@@H](NC(=O)C(NC(=O)c3cccc(OC(C)=O)c3OC(C)=O)c3csc(N)n3)[C@H]2SC1 (mixture of isomers) [Example 14, 7β-[DL-2-(2,3-diacetoxybenzoylamino)-2-(2-aminothiazol-4-yl)acetamido]cephalosporic acid] | 0.39 | 0.39 | 3.12 | 1.56 | 0.2 | 0.78 | 12.5 | 0.39
CC(=O)OCC1=C(C(=O)O)N2C(=O)[C@@H](NC(=O)C(NC(=O)c3cccc(O)c3O)c3csc(N)n3)[C@H]2SC1 (mixture of isomers) [Example 21, 7β-[DL-2-(2,3-dihydroxybenzoylamino)-2-(2-aminothiazol-4-yl)acetamido]cephalosporic acid] | 0.78 | 0.39 | 3.12 | 1.56 | 3.12 | 1.56 | > 200 | 0.39
CC(=O)OCC1=C(C(=O)O)N2C(=O)[C@@H](NC(=O)C(NC(=O)c3cc(OC(C)=O)c(OC(C)=O)c(OC(C)=O)c3)c3csc(N)n3)[C@H]2SC1 (mixture of isomers) [Example 18, 7β-[DL-2-(3,4,5-triacetoxybenzoylamino)-2-(2-aminothiazol-4-yl)acetamido]cephalosporic acid] | 0.78 | 0.2 | 1.56 | 0.39 | 0.78 | 0.78 | 3.12 | 0.1
CC(=O)OCC1=C(C(=O)O)N2C(=O)[C@@H](NC(=O)C(NC(=O)c3ccc(OC(C)=O)cc3)c3csc(N)n3)[C@H]2SC1 (mixture of isomers) [Example 17, 7β-[DL-2-(4-acetoxybenzoylamino)-2-(2-aminothiazol-4-yl)acetamido]cephalosporic acid] | 100 | 100 | 0.2 | 0.78 | 200 | 6.25 | > 200 | 3.12
